Assay results published in ChEMBL document CHEMBL6109129, “Discovery of Conformationally Constrained Dihydro Benzo-Indole Derivatives as Metallo-β-Lactamase Inhibitors to Tackle Multidrug-Resistant Bacterial Infections” (J Med Chem, 2025).
Active and inactive are the calls of the source. The rule behind the calls is not given here.

Assays:
[1] = Cytotoxicity in HEK293 cells assessed as inhibition of cell growth measured after 24 hrs by MTT assay; assay type: toxicity, cell-based; details: human
Escherichia coli [2] = test: Synergistic antibacterial activity against carbapenem-resistant Escherichia coli 541588 assessed as reduction in microbial growth at 16 ug/ml measured after 16 to 18 hrs in presence of imipenem by microbial dilution method; assay type: functional; details: dose 16 µg/ml, time 16-18 hrs
Klebsiella pneumoniae [3] = test: Anti-infective activity against carbapenem-resistant Klebsiella pneumoniae ATCC BAA 2146 expressing NDM-1 infected in neutropenic female BALB/c mouse deep thigh infection model assessed as reduction in bacterial count at 20 mg/kg,sc pre-infected with bacteria for 2 hrs followed by compound addition and measured after 26 hrs in presence of imipenem; assay type: functional
Klebsiella pneumoniae [4] = test: Synergistic antibacterial activity against carbapenem-resistant Klebsiella pneumoniae 538961 assessed as reduction in microbial growth at 4 ug/ml measured after 16 to 18 hrs in presence of imipenem by microbial dilution method; assay type: functional; details: dose 4 µg/ml, time 16-18 hrs
Enterobacter cloacae [5] = test: Synergistic antibacterial activity against carbapenem-resistant Enterobacter cloacae BAA-2468 assessed as reduction in microbial growth at 16 ug/ml measured after 16 to 18 hrs in presence of meropenem by microbial dilution method; assay type: functional; details: dose 16 µg/ml, time 16-18 hrs
Escherichia coli [6] = test: Synergistic antibacterial activity against carbapenem-resistant Escherichia coli BAA-2469 assessed as reduction in microbial growth at 0.5 ug/ml measured after 16 to 18 hrs in presence of imipenem by microbial dilution method; assay type: functional; details: dose 0.5 µg/ml, time 16-18 hrs
[7] = system: Klebsiella pneumoniae subsp. pneumoniae; test: Synergistic antibacterial activity against carbapenem-resistant Klebsiella pneumoniae subsp. pneumoniae BAA-2472 assessed as reduction in microbial growth at 0.5 ug/ml measured after 16 to 18 hrs in presence of imipenem by microbial dilution method; assay type: functional; details: dose 0.5 µg/ml, time 16-18 hrs
Escherichia coli [8] = test: Synergistic antibacterial activity against carbapenem-resistant Escherichia coli BAA-2469 assessed as reduction in microbial growth at 8 ug/ml measured after 16 to 18 hrs in presence of meropenem by microbial dilution method; assay type: functional; details: dose 8 µg/ml, time 16-18 hrs
Klebsiella pneumoniae [9] = test: Synergistic antibacterial activity against carbapenem-resistant Klebsiella pneumoniae BAA-2473 assessed as reduction in microbial growth at 8 ug/ml measured after 16 to 18 hrs in presence of meropenem by microbial dilution method; assay type: functional; details: dose 8 µg/ml, time 16-18 hrs
[10] = Metabolic stability in human liver microsomes assessed as parent compound remaining at 1 uM measured at 60 mins in presence of NADPH by LC-MS/MS analysis; assay type: ADME, Microsome; details: read-out: Stability
Klebsiella pneumoniae [11] = test: Synergistic antibacterial activity against Klebsiella pneumoniae ATCC BAA 2146 expressing NDM-1 measured after 16 to 18 hrs in presence of meropenem by microbial dilution method; assay type: functional, organism-based; details: time 16-18 hrs
Klebsiella pneumoniae [12] = test: Synergistic antibacterial activity against carbapenem-resistant Klebsiella pneumoniae 571278 assessed as reduction in microbial growth at 4 ug/ml measured after 16 to 18 hrs in presence of meropenem by microbial dilution method; assay type: functional; details: dose 4 µg/ml, time 16-18 hrs
Escherichia coli [13] = test: Synergistic antibacterial activity against carbapenem-resistant Escherichia coli 541588 assessed as reduction in microbial growth at 4 ug/ml measured after 16 to 18 hrs in presence of meropenem by microbial dilution method; assay type: functional; details: dose 4 µg/ml, time 16-18 hrs
Escherichia coli [14] = test: Synergistic antibacterial activity against carbapenem-resistant Escherichia coli BAA-2471 assessed as reduction in microbial growth at 8 ug/ml measured after 16 to 18 hrs in presence of meropenem by microbial dilution method; assay type: functional; details: dose 8 µg/ml, time 16-18 hrs
Escherichia coli [15] = test: Synergistic antibacterial activity against carbapenem-resistant Escherichia coli 541588 assessed as reduction in microbial growth at 16 ug/ml measured after 16 to 18 hrs in presence of meropenem by microbial dilution method; assay type: functional; details: dose 16 µg/ml, time 16-18 hrs
Enterobacter cloacae [16] = test: Synergistic antibacterial activity against carbapenem-resistant Enterobacter cloacae BAA-2468 assessed as reduction in microbial growth at 0.5 ug/ml measured after 16 to 18 hrs in presence of imipenem by microbial dilution method; assay type: functional; details: dose 0.5 µg/ml, time 16-18 hrs
Escherichia coli [17] = test: Synergistic antibacterial activity against carbapenem-resistant Escherichia coli 565988 assessed as reduction in microbial growth at 4 ug/ml measured after 16 to 18 hrs in presence of meropenem by microbial dilution method; assay type: functional; details: dose 4 µg/ml, time 16-18 hrs
Klebsiella pneumoniae [18] = test: Synergistic antibacterial activity against carbapenem-resistant Klebsiella pneumoniae BAA-2473 assessed as reduction in microbial growth at 0.5 ug/ml measured after 16 to 18 hrs in presence of imipenem by microbial dilution method; assay type: functional; details: dose 0.5 µg/ml, time 16-18 hrs
Escherichia coli [19] = test: Synergistic antibacterial activity against carbapenem-resistant Escherichia coli 541588 assessed as reduction in microbial growth at 4 ug/ml measured after 16 to 18 hrs in presence of imipenem by microbial dilution method; assay type: functional; details: dose 4 µg/ml, time 16-18 hrs
Klebsiella pneumoniae [20] = test: Synergistic antibacterial activity against carbapenem-resistant Klebsiella pneumoniae 565345 assessed as reduction in microbial growth at 16 ug/ml measured after 16 to 18 hrs in presence of meropenem by microbial dilution method; assay type: functional; details: dose 16 µg/ml, time 16-18 hrs
[21] = system: Klebsiella pneumoniae subsp. pneumoniae; test: Synergistic antibacterial activity against carbapenem-resistant Klebsiella pneumoniae BAA-2470 assessed as reduction in microbial growth at 16 ug/ml measured after 16 to 18 hrs in presence of meropenem by microbial dilution method; assay type: functional; details: dose 16 µg/ml, time 16-18 hrs
[22] = Apparent permeability the compound in PBS buffer at pH 7.4 measured after 5 hrs by LC-MS/MS analysis; assay type: ADME; details: not told
Escherichia coli [23] = test: Synergistic antibacterial activity against carbapenem-resistant Escherichia coli 571307 assessed as reduction in microbial growth at 16 ug/ml measured after 16 to 18 hrs in presence of imipenem by microbial dilution method; assay type: functional; details: dose 16 µg/ml, time 16-18 hrs
[24] = system: Klebsiella pneumoniae subsp. pneumoniae; test: Synergistic antibacterial activity against carbapenem-resistant Klebsiella pneumoniae BAA-2470 assessed as reduction in microbial growth at 16 ug/ml measured after 16 to 18 hrs in presence of imipenem by microbial dilution method; assay type: functional; details: dose 16 µg/ml, time 16-18 hrs
[25] = Metabolic stability in mouse liver microsomes assessed as intrinsic clearance at 1 uM preincubated for 5 mins followed by NADPH addition and measured up to 60 mins by LC-MS/MS analysis; assay type: ADME, Microsome; details: time < 65 min, read-out: CLH
Escherichia coli [26] = test: Synergistic antibacterial activity against carbapenem-resistant Escherichia coli 567975 assessed as reduction in microbial growth at 16 ug/ml measured after 16 to 18 hrs in presence of imipenem by microbial dilution method; assay type: functional; details: dose 16 µg/ml, time 16-18 hrs
[27] = target: Metallo-beta-lactamase type 2 (Bacteria) (UniProt C7C422); test: Induction of thermal stabilization of NDM-1 (unknown origin) assessed as melting temperature at 25 uM by differential scanning fluorimetry analysis
Escherichia coli [28] = test: Synergistic antibacterial activity against carbapenem-resistant Escherichia coli 565988 assessed as reduction in microbial growth at 16 ug/ml measured after 16 to 18 hrs in presence of imipenem by microbial dilution method; assay type: functional; details: dose 16 µg/ml, time 16-18 hrs
[29] = Plasma protein binding in mouse assessed as unbound fraction at 10 uM measured after 5 hrs by LC-MS/MS analysis; assay type: ADME, cell-free
Klebsiella pneumoniae [30] = test: Synergistic antibacterial activity against carbapenem-resistant Klebsiella pneumoniae 565345 assessed as reduction in microbial growth at 4 ug/ml measured after 16 to 18 hrs in presence of meropenem by microbial dilution method; assay type: functional; details: dose 4 µg/ml, time 16-18 hrs
Escherichia coli [31] = test: Synergistic antibacterial activity against carbapenem-resistant Escherichia coli BAA-2469 assessed as reduction in microbial growth at 8 ug/ml measured after 16 to 18 hrs in presence of imipenem by microbial dilution method; assay type: functional; details: dose 8 µg/ml, time 16-18 hrs
Escherichia coli [32] = test: Synergistic antibacterial activity against carbapenem-resistant Escherichia coli 565988 assessed as reduction in microbial growth at 4 ug/ml measured after 16 to 18 hrs in presence of imipenem by microbial dilution method; assay type: functional; details: dose 4 µg/ml, time 16-18 hrs

Metallo-beta-lactamase type 2 (Bacteria), sequence (C7C422 whole entry): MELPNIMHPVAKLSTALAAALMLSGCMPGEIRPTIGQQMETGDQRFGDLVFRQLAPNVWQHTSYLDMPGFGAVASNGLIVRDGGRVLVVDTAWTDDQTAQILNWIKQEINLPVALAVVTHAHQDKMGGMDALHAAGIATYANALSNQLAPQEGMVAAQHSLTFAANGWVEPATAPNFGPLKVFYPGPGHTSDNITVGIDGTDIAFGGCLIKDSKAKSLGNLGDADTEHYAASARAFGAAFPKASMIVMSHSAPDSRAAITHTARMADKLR

COc1ccc(Cl)cc1-c1c(C(=O)O)[nH]c2c1CCc1ccccc1-2
IC50 at 24 h [1]: > 200 µM | MIC (Escherichia coli [2]): 1 µg/mL | Activity (Klebsiella pneumoniae [3]): ~2.2 log10CFU/ml | MIC (Klebsiella pneumoniae [4]): 32 µg/mL | MIC (Enterobacter cloacae [5]): 4 µg/mL | MIC (Escherichia coli [6]): 32 µg/mL | MIC [7]: 64 µg/mL | MIC (Escherichia coli [8]): 4 µg/mL | MIC (Klebsiella pneumoniae [9]): 16 µg/mL | remaining at 1 h, 1 µM [10]: 56% | Activity (Klebsiella pneumoniae [11]): Active | MIC (Klebsiella pneumoniae [12]): 32 µg/mL | MIC (Escherichia coli [13]): 8 µg/mL | MIC (Escherichia coli [14]): 16 µg/mL | MIC (Escherichia coli [15]): 1 µg/mL | MIC (Enterobacter cloacae [16]): > 64 µg/mL | MIC (Escherichia coli [17]): 1 µg/mL | MIC (Klebsiella pneumoniae [18]): 64 µg/mL | MIC (Escherichia coli [19]): 1 µg/mL | MIC (Klebsiella pneumoniae [20]): 1 µg/mL | MIC [21]: 4 µg/mL | Papp at 5 h [22]: 14 ×10⁻⁶ cm/s | MIC (Escherichia coli [23]): 2 µg/mL | MIC [24]: 2 µg/mL | microsomal CLint at 1 µM [25]: 12.9 µL/min/mg | MIC (Escherichia coli [26]): 1 µg/mL | Tm [27]: 19 °C | MIC (Escherichia coli [28]): < 0.5 µg/mL | fraction unbound at 5 h, 10 µM [29]: 0.952 | MIC (Klebsiella pneumoniae [30]): 4 µg/mL | MIC (Escherichia coli [31]): 8 µg/mL | MIC (Escherichia coli [32]): 1 µg/mL
